Measurements taken from the NIST ThermoML archive (doi:10.1021/je0501639).

Assays:
[1] = xn = mol fraction of the nth substance listed; settings: 100.8 kPa, Liquid
[2] = refractive index (Na D-line) (dimensionless); xn = mol fraction of the nth substance listed; settings: 100.8 kPa, Liquid, Standard Abbe refractometry

CC(C)CC(C)(C)C [2,2,4-trimethylpentane] + CCO
Settings	mass density, 298.15 K [kg/m3]	mass density, 308.15 K [kg/m3]	mass density, 318.15 K [kg/m3]	refractive index, 298.15 K	refractive index, 308.15 K	refractive index, 318.15 K	viscosity, 298.15 K [mPa·s]	viscosity, 308.15 K [mPa·s]	viscosity, 318.15 K [mPa·s]
[1], x2 = 0	687.89	679.55	671.1	–	–	–	0.474	0.425	0.38
[1], x2 = 0.05	688.94	680.44	671.89	–	–	–	0.472	0.421	0.376
[1], x2 = 0.1	690.43	681.85	673.2	–	–	–	0.47	0.419	0.377
[1], x2 = 0.15	692.16	683.55	674.81	–	–	–	0.476	0.423	0.378
[1], x2 = 0.2	694.08	685.46	676.67	–	–	–	0.485	0.428	0.381
[1], x2 = 0.25	696.22	687.59	678.74	–	–	–	0.494	0.435	0.387
[1], x2 = 0.3	698.58	689.91	681.05	–	–	–	0.506	0.443	0.392
[1], x2 = 0.35	701.19	692.48	683.6	–	–	–	0.52	0.453	0.401
[1], x2 = 0.4	704.04	695.33	686.41	–	–	–	0.538	0.469	0.413
[1], x2 = 0.45	707.19	698.47	689.53	–	–	–	0.558	0.487	0.426
[1], x2 = 0.5	710.69	701.95	693	–	–	–	0.583	0.507	0.443
[1], x2 = 0.55	714.59	705.81	696.87	–	–	–	0.611	0.53	0.461
[1], x2 = 0.6	718.95	710.14	701.18	–	–	–	0.642	0.555	0.483
[1], x2 = 0.65	723.82	714.99	706	–	–	–	0.675	0.583	0.505
[1], x2 = 0.7	729.34	720.46	711.43	–	–	–	0.71	0.614	0.528
[1], x2 = 0.75	735.56	726.64	717.6	–	–	–	0.75	0.647	0.557
[1], x2 = 0.8	742.67	733.71	724.66	–	–	–	0.797	0.685	0.589
[1], x2 = 0.85	750.87	741.88	732.81	–	–	–	0.853	0.731	0.626
[1], x2 = 0.9	760.47	751.45	742.33	–	–	–	0.916	0.784	0.668
[1], x2 = 0.95	771.78	762.83	753.76	–	–	–	0.989	0.843	0.712
[2], x2 = 0	–	–	–	1.38898	1.38398	1.37898	–	–	–
[2], x2 = 0.05	–	–	–	1.38825	1.38325	1.37815	–	–	–
[2], x2 = 0.1	–	–	–	1.38749	1.38247	1.37738	–	–	–
[2], x2 = 0.15	–	–	–	1.38668	1.38169	1.37662	–	–	–
[2], x2 = 0.2	–	–	–	1.38586	1.38087	1.37584	–	–	–
[2], x2 = 0.25	–	–	–	1.38499	1.38002	1.37503	–	–	–
[2], x2 = 0.3	–	–	–	1.38408	1.37913	1.37417	–	–	–
[2], x2 = 0.35	–	–	–	1.38311	1.37819	1.37326	–	–	–
[2], x2 = 0.4	–	–	–	1.38208	1.37719	1.37229	–	–	–
[2], x2 = 0.45	–	–	–	1.38098	1.37612	1.37125	–	–	–
[2], x2 = 0.5	–	–	–	1.3798	1.37497	1.37013	–	–	–
[2], x2 = 0.55	–	–	–	1.37853	1.37373	1.36892	–	–	–
[2], x2 = 0.6	–	–	–	1.37716	1.37239	1.36762	–	–	–
[2], x2 = 0.65	–	–	–	1.37567	1.37093	1.36621	–	–	–
[2], x2 = 0.7	–	–	–	1.37403	1.36933	1.36466	–	–	–
[2], x2 = 0.75	–	–	–	1.37223	1.36757	1.36295	–	–	–
[2], x2 = 0.8	–	–	–	1.37023	1.36562	1.36106	–	–	–
[2], x2 = 0.85	–	–	–	1.36799	1.36345	1.35896	–	–	–
[2], x2 = 0.9	–	–	–	1.36547	1.36102	1.3566	–	–	–
[2], x2 = 0.95	–	–	–	1.36261	1.35826	1.35396	–	–	–
